Measured values reported in EP0097071A1, “Benzhydryl sulfinylacetamide derivatives and their therapeutical use” (LABORATOIRE L. LAFON Société anonyme dite:, priority 1982, dated 1983).

How the values were obtained:
[1] = tested on: souris; assay: Spontaneous motility (actimeter); assay type: in vivo; conditions: 8 mg/kg, 32 mg/kg et 128 mg/kg i.p.
How it was run: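 Male mice dosed i.p. as a suspension in aqueous gum arabic (20 ml/kg); 30 min later they are placed in an actimeter and motility is recorded for 30 min, 6 mice per dose, 12 controls.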

[2] = tested on: souris; assay: Interaction with apomorphine, mouse; assay type: in vivo
How it was run: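 Male mice, 6 per dose, received the test compound intraperitoneally as an aqueous gum arabic suspension (20 ml/kg).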

[3] = tested on: rats; assay: Interaction with amphetamine (stereotypies); assay type: in vivo; conditions: rat, 64 mg/kg i.p.
How it was run: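 Male rats, groups of 6, given test compound i.p. as aqueous gum arabic suspension; amphetamine 2 mg/kg i.p. injected 30 min later and stereotypies scored.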

[4] = tested on: souris mâle; assay: Pentobarbital-induced sleep duration; assay type: in vivo; conditions: dose 32 mg/kg i.p., 0,5 h before pentobarbital
Description: Les composés selon l'invention se distinguent du benzhydrylsulfinylacétamide (CRL 40476) précité par une différence d'action vis-à-vis du sommeil barbiturique. […]. Cette différence d'action qui est intéressante sur le plan thérapeutique est illustrée par le tableau IV

[5] = tested on: souris groupées; assay: Toxicity in grouped mice; conditions: in vivo
[6] = tested on: souris; assay: Electroshock; assay type: in vivo; conditions: dose not stated
[7] = tested on: souris mâle; assay: Toxicity, DL-0; assay type: in vivo; conditions: i.p.
How it was run: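 Male mice dosed intraperitoneally with compound suspended in aqueous gum arabic at 20 ml/kg. Value is DL-0, the minimal non-lethal dose.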

[8] = tested on: souris; assay: Traction test; assay type: in vivo; conditions: 0,5 h after administration, dose not stated
[9] = tested on: souris; assay: Asphyxic anoxia (gallamine triethiodide); assay type: in vivo; conditions: dose not stated
How it was run: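 Male mice, 10 per dose, given compound i.p. as suspension in aqueous gum arabic (20 ml/kg). Gallamine triethiodide 32 mg/kg i.p. injected 30 min after compound.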

[10] = tested on: souris; assay: Intergroup aggressiveness; assay type: in vivo; conditions: dose not stated
How it was run: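 Male mice, housed in groups of 3 on either side of an opaque partition for 3 weeks, received compound i.p. as a gum arabic suspension at 20 ml/kg. After 30 min the partition was removed, and fights were counted over 10 min.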

[11] = tested on: SNC; assay: Essential activity on the CNS (Tableau I and conclusions of the neuropsychopharmacological study); assay type: in vivo; conditions: in vivo
Description: Dans le tableau I ci-après, on a consigné un certain nombre de composés selon la formule I de façon nullement limitative, en mentionnant l'activité essentielle sur le SNC.
Les composés de formule I agissent tous sur le SNC. Les produits des exemples 1-3 et 7-8 sont des agents stimulants, en revanche les produits des exemples 4-6 sont des agents sédatifs.

[12] = tested on: souris; assay: Interaction with oxotremorine; assay type: in vivo
How it was run: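 Groups of 6 male mice received test compound i.p. as a suspension in aqueous gum arabic (20 ml/kg).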

[13] = tested on: rat; assay: Interaction with apomorphine, rat; assay type: in vivo; conditions: 64 mg/kg i.p.
How it was run: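 Groups of 6 male rats received test compound intraperitoneally as a suspension in aqueous gum arabic (5 ml/kg).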

[14] = tested on: souris; assay: Motility reduced by habituation to the enclosure; assay type: in vivo; conditions: dès 8 mg/kg et surtout à 32 mg/kg et 128 mg/kg i.p.
How it was run: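 Male mice (6 per dose, 12 controls) habituated 18 h in actimeters got compound i.p. as aqueous gum arabic suspension, 20 ml/kg. Returned to enclosures immediately; motility recorded for 30 min starting 30 min post-dose.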

[15] = tested on: rats mâles; assay: Global behaviour and reactivities, rat; assay type: in vivo
[16] = tested on: souris; assay: Interaction with reserpine; assay type: in vivo; conditions: 32 mg/kg, 64 mg/kg et 128 mg/kg i.p.
[17] = tested on: homme; assay: Clinical trials; assay type: in vivo
Description: Les études cliniques ont porté sur les troubles de la vigilance, de l'éveil et des états confusionnels, d'une part, et sur les troubles de l'affectivité, du contact et des dépressions, d'autre part.

[18] = tested on: souris; assay: Interaction with barbital (sleep); assay type: in vivo; conditions: 32 mg/kg et 128 mg/kg i.p.
How it was run: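 Male mice (groups of 10) dosed intraperitoneally with compound suspended in aqueous gum arabic (20 ml/kg); barbital 220 mg/kg i.p. given half an hour later.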

[19] = tested on: souris; assay: Motility reduced by hypoxic aggression (acute hypobaric anoxia); assay type: in vivo; conditions: 32 mg/kg, mais surtout 128 mg/kg i.p.
How it was run: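 Male mice (10 per dose, 20 controls) got compound i.p. as an aqueous gum arabic suspension (20 ml/kg). Thirty minutes later they underwent acute hypobaric anoxia: 600 mm Hg depression over 90 s, then 45 s release. Motility was then recorded in an actimeter for 10 min.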

[20] = tested on: souris; assay: Behavioural despair (forced immersion); assay type: in vivo; conditions: 8 mg/kg, 32 mg/kg et 128 mg/kg i.p.
How it was run: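 Male mice were dosed i.p. with compound suspended in aqueous gum arabic at 20 ml/kg, 10 per dose. Thirty minutes later each mouse was put in a confined space holding 6 cm of water, and immobility time was scored from minute 2 to minute 6.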

[21] = tested on: souris; assay: Four plates test; assay type: in vivo; conditions: 0,5 h after administration, dose not stated
[22] = tested on: souris mâles; assay: Global behaviour and reactivities, mouse; assay type: in vivo

## NC(=O)C[S+]([O-])C(c1ccc(F)cc1)c1ccc(F)cc1 (centres unmarked) [Exemple 8, 4,4'-difluorobenzhydrylsulfinylacétamide]
[1]
  motilité spontanée: augmentation nette
[2]; 32 mg/kg et 128 mg/kg i.p.
  own effect on temperature: hypothermisant
[2]; 32 mg/kg et 128 mg/kg i.p., apomorphine 1 et 16 mg/kg
  hypothermie induite par l'apomorphine: aggrave
[2]; dose not stated
  comportement de verticalisation et stéréotypies (apomorphine): ne modifie pas
[3]
  stéréotypies amphétaminiques: potentialisation
[4]
  Action sur la durée du sommeil induit par le pentobarbital (50 mg/kg i.p.) effet: (a)
[5]
  toxicité particulière chez les souris groupées: absence de toxicité particulière
[6]
  effets convulsivants de l'électrochoc: ne modifie pratiquement pas
[7]
  DL-O: supérieure à 256 mg/kg
[8]
  déficit moteur (traction): ne provoque pas d'incapacité motrice majeure
[9]
  délai d'apparition des convulsions et de la mort consécutives à une anoxie asphyxique: ne modifie pas
[10]
  agressivité intergroupes (nombre de combats): n'a pas d'effet antiagressif
[11]
  Activité sur le SNC: stimulant
  conclusion of the neuropsychopharmacological study: main type of CNS effect: composante excitante
[12]; 2 mg/kg, 8 mg/kg, 32 mg/kg et 128 mg/kg i.p.
  hypothermie induite par l'oxotrémorine: antagonise modérément et tardivement
[12]; dose not stated
  signes de stimulation cholinergique périphérique dus à l'oxotrémorine: ne modifie pas
  tremblements induits par l'oxotrémorine: ne sont pratiquement pas modifiés
[13]
  stéréotypies induites par l'apomorphine: augmente
[14]
  activité motrice chez la souris habituée à son enceinte: reprise d'activité motrice très nette
[15]; 16 mg/kg i.p.
  Observations (comportement global et réactivités): excitation - réactivité au toucher pendant 2 h
[15]; 64 mg/kg i.p.
  Observations (comportement global et réactivités): excitation - réactivité au toucher - fréquence respiratoire augmentée pendant 24 h
[16]
  hypothermie réserpinique: antagonise tardivement
[16]; à 24 h
  ptôsis réserpinique: antagonise également mais de façon modérée
[17]
  action contre l'énurésie: agissent efficacement
[17]; notamment vieillard, gélules ou comprimés de 100 à 200 mg, 1 à 3 par jour
  résultats en tant que médicaments de l'éveil: excellents résultats
[18]
  durée du sommeil barbiturique: diminue nettement
[19]
  récupération motrice après séjour bref dans une enceinte à pression réduite: amélioration significative
[20]
  durée d'immobilité de la souris placée en immersion forcée: diminue nettement
[21]
  nombre de passages punis: n'entraîne pas d'augmentation
[22]; souris
  signes de stimulation sympathique périphérique: absence
[22]; souris, 2 mg/kg i.p.
  Observations (comportement global et réactivités): réactivité au toucher pendant 2 h
[22]; souris, 8 mg/kg i.p.
  Observations (comportement global et réactivités): éxcitation tardive débutant 2 h après administration - réactivité au toucher pendant 2 h
[22]; souris, 512 mg/kg i.p.
  Observations (comportement global et réactivités): démarche titubante pendant 0,75 h, - convulsions (66% des animaux) pendant 0,75 h
  mortalité: 4 animaux sur 6 en 1 h, puis 2 animaux sur 6 en 24 h
[22]; souris, 512 mg/kg i.p., pendant 0,75 h
  convulsions: 66 % des animaux
[22]; souris, 32 mg/kg i.p.
  Observations (comportement global et réactivités): excitation tardive débutant 1 h après administration et durant 2 h - stéréotypies 3 h après administration - réactivité au toucher pendant 24 h
[22]; souris, 128 mg/kg i.p.
  Observations (comportement global et réactivités): excitation avec stéréotypies pen-dant 3 h - augmentation de la réactivité au toucher pendant 24 h - hypothermie (-1,3°C) pendant 3 h
  hypothermie: -1,3 °C
[22]; souris, 256 mg/kg i.p.
  Observations (comportement global et réactivités): excitation débutant 0,5 h après adminis-tration - stéréotypies
  mortalité: pas de mortalité
[22]; supposed from the late onset of several effects and the kinetic study of stereotypies
  résorption: résorption lente
